Patent publication US7217726B2, “Antibacterial agents” (Orchid Chemicals & Pharmaceuticals Limited, priority 2002, dated 2007)
Converted amounts (≈) assume the structure as drawn.

Assays:
E. fecalis MRO 04045 = test: Agar Dilution Method MIC, E. fecalis MRO 04045; assay type: cell-based; settings: Enterococcus faecalis, MRO04045, Mueller Hinton Agar, 35° Celsius, 20 hours, read-out: Minimum Inhibitory Concentration (MIC in μg/ml)
Procedure: (§1) Briefly, the compounds of invention were weighed, dissolved in Dimethyl Sulfoxide, serially diluted in the same solvent and then incorporated into molten Mueller Hinton Agar in a petridish before solidification, with each petridish containing a different concentration of a compound.
(§2) The Bacterial Inoculum was prepared by touching the tops of 3 to 5 well isolated bacterial colonies with the same morphological appearance from an 18 hour old culture with an inoculating loop, transfering the growth to a tube containing 5 ml of normal saline and adjusting the turbidity of the saline suspension to 0.5 Macfarland Turbidity Standard equivalent to a bacterial population of 1.5×10^8 colony forming units (CFU) per millilitre of suspension.
(§3) The bacterial inoculum prepared in the above manner was inoculated onto petri dishes containing Mueller Hinton Agar which had earlier been incorporated with different dilutions of the compounds of invention by a Multipoint Inoculator with each inoculum spot containing approximately 1×10^4 colony forming units (CFU) of bacteria.
(§4) The inoculated petridishes were incubated at 35° Celsius in an ambient atmosphere for 20 hours. Petridishes containing different concentrations of Vancomycin and Oxacillin and inoculated with Staphylococcus aureus, Coagulase Negative Staphylococci and Enterococci were incubated for 24 hours.

[1] = system: M. catarrhalis ATCC 43627; test: Agar Dilution Method MIC, M. catarrhalis ATCC 43627; assay type: cell-based, Morexella catarrhalis; settings: Moraxella catarrhalis, ATCC43627, Mueller Hinton Agar, 35° Celsius, 20 hours, read-out: Minimum Inhibitory Concentration (MIC in μg/ml)
Procedure: as §1, §2, §3, §4

S. aureus ATCC 43300 = test: Agar Dilution Method MIC, S. aureus ATCC 43300; assay type: cell-based; settings: Staphylococcus aureus, ATCC43300, Mueller Hinton Agar, 35° Celsius, 20 hours, read-out: Minimum Inhibitory Concentration (MIC in μg/ml)
Procedure: as §1, §2, §3, §4

S. aureus MRO 00055 = test: Agar Dilution Method MIC, S. aureus MRO 00055; assay type: cell-based; settings: Staphylococcus aureus, MRO00055, Mueller Hinton Agar, 35° Celsius, 20 hours, read-out: Minimum Inhibitory Concentration (MIC in μg/ml)
Procedure: as §1, §2, §3, §4

S. aureus MRO 00059 = test: Agar Dilution Method MIC, S. aureus MRO 00059; assay type: cell-based; settings: Staphylococcus aureus, MRO00059, Mueller Hinton Agar, 35° Celsius, 20 hours, read-out: Minimum Inhibitory Concentration (MIC in μg/ml)
Procedure: as §1, §2, §3, §4

S. epidermidis MRO 02046 = test: Agar Dilution Method MIC, S. epidermidis MRO 02046; assay type: cell-based; settings: Staphylococcus epidermidis, MRO02046, Mueller Hinton Agar, 35° Celsius, 20 hours, read-out: Minimum Inhibitory Concentration (MIC in μg/ml)
Procedure: as §1, §2, §3, §4

S. aureus MRO 00013 = test: Agar Dilution Method MIC, S. aureus MRO 00013; assay type: cell-based; settings: Staphylococcus aureus, MRO00013, Mueller Hinton Agar, 35° Celsius, 20 hours, read-out: Minimum Inhibitory Concentration (MIC in μg/ml)
Procedure: as §1, §2, §3, §4

S. aureus MRO 00030 = test: Agar Dilution Method MIC, S. aureus MRO 00030; assay type: cell-based; settings: Staphylococcus aureus, MRO00030, Mueller Hinton Agar, 35° Celsius, 20 hours, read-out: Minimum Inhibitory Concentration (MIC in μg/ml)
Procedure: as §1, §2, §3, §4

S. aureus MRO 00003 = test: Agar Dilution Method MIC, S. aureus MRO 00003; assay type: cell-based; settings: Staphylococcus aureus, MRO00003, Mueller Hinton Agar, 35° Celsius, 20 hours, read-out: Minimum Inhibitory Concentration (MIC in μg/ml)
Procedure: as §1, §2, §3, §4

S. aureus ATCC 29213 = test: Agar Dilution Method MIC, S. aureus ATCC 29213; assay type: cell-based; settings: Staphylococcus aureus, ATCC29213, Mueller Hinton Agar, 35° Celsius, 20 hours, read-out: Minimum Inhibitory Concentration (MIC in μg/ml)
Procedure: as §1, §2, §3, §4

[2] = system: M. catarrhalis ATCC 43617; test: Agar Dilution Method MIC, M. catarrhalis ATCC 43617; assay type: cell-based, Morexella catarrhalis; settings: Moraxella catarrhalis, ATCC43617, Mueller Hinton Agar, 35° Celsius, 20 hours, read-out: Minimum Inhibitory Concentration (MIC in μg/ml)
Procedure: as §1, §2, §3, §4

S. aureus MRO 00001 = test: Agar Dilution Method MIC, S. aureus MRO 00001; assay type: cell-based; settings: Staphylococcus aureus, MRO00001, Mueller Hinton Agar, 35° Celsius, 20 hours, read-out: Minimum Inhibitory Concentration (MIC in μg/ml)
Procedure: as §1, §2, §3, §4

E. faecalis ATCC 51299 = test: Agar Dilution Method MIC, E. faecalis ATCC 51299; assay type: cell-based; settings: Enterococcus faecalis, ATCC51299, Mueller Hinton Agar, 35° Celsius, 20 hours, read-out: Minimum Inhibitory Concentration (MIC in μg/ml)
Procedure: as §1, §2, §3, §4

S. aureus MRO 00048 = test: Agar Dilution Method MIC, S. aureus MRO 00048; assay type: cell-based; settings: Staphylococcus aureus, MRO00048, Mueller Hinton Agar, 35° Celsius, 20 hours, read-out: Minimum Inhibitory Concentration (MIC in μg/ml)
Procedure: as §1, §2, §3, §4

E. faecalis ATCC 29212 = test: Agar Dilution Method MIC, E. faecalis ATCC 29212; assay type: cell-based; settings: Enterococcus faecalis, ATCC29212, Mueller Hinton Agar, 35° Celsius, 20 hours, read-out: Minimum Inhibitory Concentration (MIC in μg/ml)
Procedure: as §1, §2, §3, §4

[3] = system: M. catarrhalis ATCC 43628; test: Agar Dilution Method MIC, M. catarrhalis ATCC 43628; assay type: cell-based, Morexella catarrhalis; settings: Moraxella catarrhalis, ATCC43628, Mueller Hinton Agar, 35° Celsius, 20 hours, read-out: Minimum Inhibitory Concentration (MIC in μg/ml)
Procedure: as §1, §2, §3, §4

Structure (SMILES) | MIC (E. fecalis MRO 04045) | MIC [1] | MIC (S. aureus ATCC 43300) | MIC (S. aureus MRO 00055) | MIC (S. aureus MRO 00059) | MIC (S. epidermidis MRO 02046) | MIC (S. aureus MRO 00013) | MIC (S. aureus MRO 00030) | MIC (S. aureus MRO 00003) | MIC (S. aureus ATCC 29213) | MIC [2] | MIC (S. aureus MRO 00001) | MIC (E. faecalis ATCC 51299) | MIC (S. aureus MRO 00048) | MIC (E. faecalis ATCC 29212) | MIC [3]
CC(=S)NC[C@H]1CN(c2ccc(N3CCN(C(=S)c4ccsc4)CC3)c(F)c2)C(=O)O1 [Example 1, (S)-N-[3-[3-fluoro-4-[4(thiophen-3-ylthiocarbonyl)piperazin-1-yl]phenyl]-2-oxooxazolidin-5-ylmethyl]thioacetamide] | 0.5 µg/mL (≈ 1.04 µM) | 1 µg/mL (≈ 2.09 µM) | 0.25 µg/mL (≈ 0.522 µM) | 0.5 µg/mL (≈ 1.04 µM) | 0.5 µg/mL (≈ 1.04 µM) | 0.25 µg/mL (≈ 0.522 µM) | 0.5 µg/mL (≈ 1.04 µM) | 0.5 µg/mL (≈ 1.04 µM) | 0.5 µg/mL (≈ 1.04 µM) | 0.25 µg/mL (≈ 0.522 µM) | 1 µg/mL (≈ 2.09 µM) | 0.25 µg/mL (≈ 0.522 µM) | 0.5 µg/mL (≈ 1.04 µM) | 0.25 µg/mL (≈ 0.522 µM) | 0.5 µg/mL (≈ 1.04 µM) | 1 µg/mL (≈ 2.09 µM)
CC(=S)NC[C@H]1CN(c2ccc(N3CCN(C(=S)c4cccs4)CC3)c(F)c2)C(=O)O1 [Example 3, (S)-N-[3-[3-Fluoro-4-[4-(thiophen-2-ylthiocarbonyl)piperazin-1-yl]phenyl]-2-oxooxazolidin-5-ylmethyl]thioacetamide] | 1 µg/mL (≈ 2.09 µM) | 1 µg/mL (≈ 2.09 µM) | 0.25 µg/mL (≈ 0.522 µM) | 1 µg/mL (≈ 2.09 µM) | 0.25 µg/mL (≈ 0.522 µM) | 0.5 µg/mL (≈ 1.04 µM) | 1 µg/mL (≈ 2.09 µM) | 0.5 µg/mL (≈ 1.04 µM) | 1 µg/mL (≈ 2.09 µM) | 0.5 µg/mL (≈ 1.04 µM) | 1 µg/mL (≈ 2.09 µM) | 0.5 µg/mL (≈ 1.04 µM) | 0.25 µg/mL (≈ 0.522 µM) | 0.25 µg/mL (≈ 0.522 µM) | 0.5 µg/mL (≈ 1.04 µM) | 1 µg/mL (≈ 2.09 µM)
CC(=S)NC[C@H]1CN(c2ccc(N3CCN(C(=S)NC(=O)c4ccccc4)CC3)c(F)c2)C(=O)O1 [Example 47] | 0.25 µg/mL (≈ 0.485 µM) | – | 0.25 µg/mL (≈ 0.485 µM) | 0.5 µg/mL (≈ 0.97 µM) | 0.25 µg/mL (≈ 0.485 µM) | 0.25 µg/mL (≈ 0.485 µM) | 0.5 µg/mL (≈ 0.97 µM) | 0.5 µg/mL (≈ 0.97 µM) | 0.5 µg/mL (≈ 0.97 µM) | 0.5 µg/mL (≈ 0.97 µM) | – | 0.25 µg/mL (≈ 0.485 µM) | 0.25 µg/mL (≈ 0.485 µM) | 0.25 µg/mL (≈ 0.485 µM) | 0.25 µg/mL (≈ 0.485 µM) | –
CC(=S)NC[C@H]1CN(c2ccc(N3CCN(C(=S)Nc4ccc([N+](=O)[O-])cc4)CC3)c(F)c2)C(=O)O1 [Example 45, (S)-N-[3-[3-Fluoro-4-(4-(4-nitrophenyl)thiocarbamidopiperazin-1-yl)phenyl]-2-oxooxazolidin-5-methyl]thioacetamide] | 0.25 µg/mL (≈ 0.469 µM) | – | 0.25 µg/mL (≈ 0.469 µM) | 0.5 µg/mL (≈ 0.939 µM) | 0.5 µg/mL (≈ 0.939 µM) | 0.25 µg/mL (≈ 0.469 µM) | 0.5 µg/mL (≈ 0.939 µM) | 0.5 µg/mL (≈ 0.939 µM) | 0.5 µg/mL (≈ 0.939 µM) | 0.5 µg/mL (≈ 0.939 µM) | – | 0.25 µg/mL (≈ 0.469 µM) | 0.25 µg/mL (≈ 0.469 µM) | 0.25 µg/mL (≈ 0.469 µM) | 0.25 µg/mL (≈ 0.469 µM) | –

Continued by falling MIC (E. fecalis MRO 04045), values first:

MIC (E. fecalis MRO 04045) | MIC [1] | MIC (S. aureus ATCC 43300) | MIC (S. aureus MRO 00055) | MIC (S. aureus MRO 00059) | MIC (S. epidermidis MRO 02046) | MIC (S. aureus MRO 00013) | MIC (S. aureus MRO 00030) | MIC (S. aureus MRO 00003) | MIC (S. aureus ATCC 29213) | MIC [2] | MIC (S. aureus MRO 00001) | MIC (E. faecalis ATCC 51299) | MIC (S. aureus MRO 00048) | MIC (E. faecalis ATCC 29212) | MIC [3] | Structure (SMILES)
1 µg/mL (≈ 2.29 µM) | 1 µg/mL (≈ 2.29 µM) | 0.25 µg/mL (≈ 0.573 µM) | 1 µg/mL (≈ 2.29 µM) | 0.25 µg/mL (≈ 0.573 µM) | 0.25 µg/mL (≈ 0.573 µM) | 1 µg/mL (≈ 2.29 µM) | 0.5 µg/mL (≈ 1.15 µM) | 1 µg/mL (≈ 2.29 µM) | 0.5 µg/mL (≈ 1.15 µM) | 1 µg/mL (≈ 2.29 µM) | 0.25 µg/mL (≈ 0.573 µM) | 0.25 µg/mL (≈ 0.573 µM) | 0.25 µg/mL (≈ 0.573 µM) | 0.5 µg/mL (≈ 1.15 µM) | 1 µg/mL (≈ 2.29 µM) | CC(=S)NC[C@H]1CN(c2ccc(N3CCN(C(=S)C4CC4)CC3)c(F)c2)C(=O)O1 [Example 6, (S)-N-[3-[3-Fluoro-4-[4-(cyclopropylthiocarbonyl)piperazin-1-yl]phenyl]-2-oxooxazolidin-5-ylmethyl]thioacetamide]
1 µg/mL (≈ 2.16 µM) | 1 µg/mL (≈ 2.16 µM) | 0.5 µg/mL (≈ 1.08 µM) | 1 µg/mL (≈ 2.16 µM) | 0.5 µg/mL (≈ 1.08 µM) | < 0.25 µg/mL | 1 µg/mL (≈ 2.16 µM) | 0.5 µg/mL (≈ 1.08 µM) | 0.5 µg/mL (≈ 1.08 µM) | 0.5 µg/mL (≈ 1.08 µM) | 1 µg/mL (≈ 2.16 µM) | 0.5 µg/mL (≈ 1.08 µM) | < 0.25 µg/mL | < 0.25 µg/mL | 0.5 µg/mL (≈ 1.08 µM) | 1 µg/mL (≈ 2.16 µM) | CC(=S)NC[C@H]1CN(c2ccc(N3CCN(C(=S)c4ncc[nH]4)CC3)c(F)c2)C(=O)O1 [Example 22, (S)-N-[3-[3-Fluoro-4-[4-(imidazol-2-ylthiocarbonyl)piperazin-1-yl]phenyl]-2-oxooxazolidin-5-ylmethyl]thioacetamide]
